{"source": "ChEMBL document CHEMBL3102801", "about": "“Synthesis and antiproliferative activity of new derivatives containing the polycyclic system 5,7:7,13-dimethanopyrazolo[3,4-b]pyrazolo[3',4':2,3]azepino[4,5-f]azocine” (Eur J Med Chem, 2014)", "key": {"SW-620": {"tested_on": "SW-620", "assay": "Growth inhibition of human SW620 cells after 48 hrs by sulforhodamine B assay", "type": "functional", "conditions": "SW-620, 48 h"}, "[1]": {"assay": "Growth inhibition of human RXF393 cells after 48 hrs by sulforhodamine B assay", "type": "functional", "conditions": "RXF 393, 48 h"}, "[2]": {"assay": "Growth inhibition of human HCC2998 cells after 48 hrs by sulforhodamine B assay", "type": "functional", "conditions": "HCC 2998, 48 h"}, "Malme-3M": {"tested_on": "Malme-3M", "assay": "Growth inhibition of human MALME-3M cells after 48 hrs by sulforhodamine B assay", "type": "functional"}, "NCI-H23": {"tested_on": "NCI-H23", "assay": "Growth inhibition of human NCI-H23 cells after 48 hrs by sulforhodamine B assay", "type": "functional", "conditions": "NCI-H23, 48 h"}, "MDA-MB-468": {"tested_on": "MDA-MB-468", "assay": "Growth inhibition of human MDA-MB-468 cells after 48 hrs by sulforhodamine B assay", "type": "functional", "conditions": "MDA-MB-468, 48 h"}, "MOLT-4": {"tested_on": "MOLT-4", "assay": "Growth inhibition of human MOLT4 cells after 48 hrs by sulforhodamine B assay", "type": "functional", "conditions": "MOLT-4, 48 h"}, "[3]": {"target": "T1, Retinoblastoma-associated protein (Homo sapiens) (UniProt P06400)", "T1 sequence (whole entry)": "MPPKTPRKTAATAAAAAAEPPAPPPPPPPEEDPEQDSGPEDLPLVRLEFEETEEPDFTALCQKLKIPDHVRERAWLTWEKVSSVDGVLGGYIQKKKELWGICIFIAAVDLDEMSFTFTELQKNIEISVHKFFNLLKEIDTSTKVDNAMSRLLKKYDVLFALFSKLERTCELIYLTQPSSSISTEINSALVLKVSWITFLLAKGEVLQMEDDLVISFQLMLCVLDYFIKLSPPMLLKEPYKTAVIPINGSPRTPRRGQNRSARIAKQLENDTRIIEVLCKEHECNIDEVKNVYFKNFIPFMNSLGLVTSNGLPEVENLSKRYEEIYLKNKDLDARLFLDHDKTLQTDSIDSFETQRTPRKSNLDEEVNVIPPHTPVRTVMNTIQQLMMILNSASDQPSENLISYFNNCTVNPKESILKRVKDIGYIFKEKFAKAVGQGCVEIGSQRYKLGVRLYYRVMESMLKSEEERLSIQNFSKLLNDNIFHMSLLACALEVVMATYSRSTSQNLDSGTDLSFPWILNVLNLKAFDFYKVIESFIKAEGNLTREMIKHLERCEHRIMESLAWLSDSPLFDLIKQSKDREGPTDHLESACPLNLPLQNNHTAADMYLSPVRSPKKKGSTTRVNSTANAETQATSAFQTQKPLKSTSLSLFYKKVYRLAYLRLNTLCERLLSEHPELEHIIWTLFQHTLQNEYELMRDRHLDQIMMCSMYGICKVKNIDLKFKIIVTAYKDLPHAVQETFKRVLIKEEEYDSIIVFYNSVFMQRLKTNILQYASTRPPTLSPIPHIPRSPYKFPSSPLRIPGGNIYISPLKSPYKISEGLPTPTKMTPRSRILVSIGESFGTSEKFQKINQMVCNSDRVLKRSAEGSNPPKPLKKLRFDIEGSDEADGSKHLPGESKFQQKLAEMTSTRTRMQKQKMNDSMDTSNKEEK", "assay": "Inhibition of pRb p110 phosphorylation in human MDA-MB-231 cells after 48 hrs by Western blotting", "type": "cell-based"}, "[4]": {"assay": "Growth inhibition of human OVCAR4 cells after 48 hrs by sulforhodamine B assay", "type": "functional", "conditions": "OVCAR-4, 48 h"}, "SF-268": {"tested_on": "SF-268", "assay": "Growth inhibition of human SF268 cells after 48 hrs by sulforhodamine B assay", "type": "functional", "conditions": "SF-268, 48 h"}, "[5]": {"assay": "Cytotoxicity against human HuDe cells after 48 hrs by sulforhodamine B assay", "type": "cell-based"}}, "data": [{"smiles": "C=C1c2c(C)nn(-c3ccc(OC)cc3)c2N(C)C23CC1C1(C)c4c(C)nn(-c5ccc(OC)cc5)c4N(C)C(C)(CC12)C3", "note": "(stereo unspecified)", "values": [{"measurement": "GI50", "setting": "SW-620", "value": 3.63, "unit": "µM"}, {"measurement": "GI50", "setting": "[1]", "value": 1.9, "unit": "µM"}, {"measurement": "GI50", "setting": "[2]", "value": 4.07, "unit": "µM"}, {"measurement": "GI50", "setting": "Malme-3M", "value": 3.24, "unit": "µM"}, {"measurement": "GI50", "setting": "NCI-H23", "value": 3.86, "unit": "µM"}, {"measurement": "GI50", "setting": "MDA-MB-468", "value": 2.5, "unit": "µM"}, {"measurement": "GI50", "setting": "MOLT-4", "value": 2.6, "unit": "µM"}, {"measurement": "inhibition", "setting": "[3]", "value": "Dose-dependent effect"}, {"measurement": "GI50", "setting": "[4]", "value": 3.56, "unit": "µM"}, {"measurement": "GI50", "setting": "SF-268", "value": 3.63, "unit": "µM"}, {"measurement": "IC50", "setting": "[5]", "value": 76, "unit": "µM"}]}]}
